# Laboratory results published in US6355799B1, “Substituted benzene compounds, process for their preparation, and herbicidal and defoliant compositions containing them” (ISK Americas Incorporated, priority 1997, dated 2002).
# Read-outs that look alike come from different tables or passages of the source.
# Legend:
# Type in all cases: in vivo
# [1] = tested on: redroot pigweed (Amaranthus retroflexus, AMARE); assay: Pre-emerge test, greenhouse herbicide activity screening; settings: Amaranthus retroflexus, pre-emergence, 336 h, read-out: Pre-emerge Herbicidal Activity AMARE
# Outline: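 Visual ratings on a 0-100 scale (0 no damage, 100 all plants dead) were taken at 14 days after treatment. Rates of 15-1000 g ai/ha in acetone, 187 l/ha, were sprayed onto soil one day after planting (pre-emerge) or onto 2-3 leaf plants with 0.25% v/v surfactant (post-emerge).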
# [2] = tested on: common ragweed (Ambrosia artemisizfolia L., AMBEL); assay: as above
# Outline: (§1)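 Compounds in acetone were track-sprayed at 15-1000 g ai/ha (187 l/ha) on sandy loam pots: pre-emerge one day after seeding, post-emerge at 2-3 leaf stage with 0.25% v/v non-ionic surfactant. Phytotoxicity was rated 14 days later on a 0 (no damage) to 100 (complete death) scale.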
# [3] = tested on: velvetleaf (Abutilon theophrasti, ABUTH); assay: as above; settings: Abutilon theophrasti, pre-emergence, 336 h, read-out: Pre-emerge Herbicidal Activity ABUTH
# Outline: as §1
# [4] = tested on: lambsquarters (Chenopodium album, CHEAL); assay: as above; settings: Chenopodium album, pre-emergence, 336 h, read-out: Pre-emerge Herbicidal Activity CHEAL
# Outline: as §1
# [5] = tested on: johnsongrass (Sorghum halepense, SORHA); assay: as above; settings: Sorghum halepense, pre-emergence, 336 h, read-out: Pre-emerge Herbicidal Activity SORHA
# Outline: as §1
# [6] = tested on: green foxtail (Setaria viridis, SETVI); assay: as above; settings: Setaria viridis, pre-emergence, 336 h, read-out: Pre-emerge Herbicidal Activity SETVI
# Outline: as §1
# [7] = tested on: common ragweed (Ambrosia artemisizfolia L., AMBEL); assay: Post-emerge test, greenhouse herbicide activity screening; settings: post-emerge; for phytotoxicity rating AMBEL: 14 days after application, rating scale 0-100; for Post-emerge Herbicidal Activity AMBEL: phytotoxicity rating 0-100 at 14 days after application
# Outline: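 Herbicidal damage is scored 0 (none) to 100 (complete plant death) two weeks after a simulated field spray. Rates span 15–1000 g ai/ha, delivered in acetone at 187 l/ha. For post-emergence treatments, plants have 2–3 leaves and the spray carries 0.25% v/v non-ionic surfactant.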
# [8] = tested on: field corn (Zea mays L., var. Dekalb 535, CORN); assay: Pre-emerge test, crop safety; settings: crop damage rating 0-100, 14 days after application
# Outline: as §1
# [9] = tested on: soybean (Glycine max L., var. Pella 86, SOY); assay: Pre-emerge test, crop safety; settings: crop damage rating 0-100, 14 days after application
# Outline: as §1
# [10] = tested on: upland rice (Oryza sp., var. Tebonnet, RICE); assay: Pre-emerge test, crop safety; settings: crop damage rating 0-100, 14 days after application
# Outline: as §1
# [11] = tested on: field corn (Zea mays L., var. Dekalb 535, CORN); assay: Post-emerge test, crop safety; settings: post-emerge, 14 days after application, rating scale 0-100
# Outline: as §1
# [12] = tested on: soybean (Glycine max L., var. Pella 86, SOY); assay: Post-emerge test, crop safety; settings: 14 days after application, rating scale 0-100
# Outline: as §1
# [13] = tested on: upland rice (Oryza sp., var. Tebonnet, RICE); assay: Post-emerge test, crop safety; settings: post-emerge, 14 days after application, rating scale 0-100
# Outline: as §1
# [14] = 63 g ai/ha, phytotoxicity rating 0-100, 14 days after application
# [15] = 250 g ai/ha, phytotoxicity rating 0-100, 14 days after application
# [16] = pre-emerge, rate 63 g ai/ha, phytotoxicity rating 0-100 at 14 days after application
# [17] = pre-emerge, rate 250 g ai/ha, phytotoxicity rating 0-100 at 14 days after application
smiles,measurement,setting,value
"CNC(=O)N(C(=O)NC)c1c(OC)c(Cl)cc(F)c1-n1c(=O)cc(C(F)(F)F)n(C)c1=O [Compound 3-1, 3-[2-bis(methylaminocarbonyl)amino-4-chloro-6-fluoro-3-methoxyphenyl]-1-methyl-6-trifluoromethyl-2,4(1H, 3H)-pyrimidinedione]",pest or weed control at 63 g/ha,[1]; [14],0%
same,pest or weed control at 250 g/ha,[1]; [15],30%
same,Pre-emerge Herbicidal Activity AMBEL,[2]; [14],0
same,Pre-emerge Herbicidal Activity AMBEL,[2]; [15],0
same,pest or weed control at 63 g/ha,[3]; [14],0%
same,pest or weed control at 250 g/ha,[3]; [15],20%
same,pest or weed control at 63 g/ha,[4]; [14],20%
same,pest or weed control at 250 g/ha,[4]; [15],80%
same,pest or weed control at 63 g/ha,[5]; [14],0%
same,pest or weed control at 250 g/ha,[5]; [15],0%
same,pest or weed control at 63 g/ha,[6]; [14],0%
same,pest or weed control at 250 g/ha,[6]; [15],0%
same,phytotoxicity rating AMBEL,[7]; 63 g ai/ha,0
same,phytotoxicity rating AMBEL,[7]; 250 g ai/ha,0
"COC(=O)Nc1c(OC)c(Cl)cc(F)c1-n1c(=O)cc(C(F)(F)F)n(C)c1=O [Compound 4-1, 3-(4chloro-6-fluoro-3-methoxy-2-methoxycarbonylaminophenyl)-1-methyl-6-trifluoromethyl-2,4(1H, 3H)-pyrimidinedione]",pest or weed control at 63 g/ha,[1]; [14],100%
same,pest or weed control at 250 g/ha,[1]; [15],100%
same,pest or weed control at 63 g/ha,[3]; [14],100%
same,pest or weed control at 250 g/ha,[3]; [15],100%
same,pest or weed control at 63 g/ha,[4]; [14],100%
same,pest or weed control at 250 g/ha,[4]; [15],100%
same,pest or weed control at 63 g/ha,[5]; [14],60%
same,pest or weed control at 250 g/ha,[5]; [15],100%
same,pest or weed control at 63 g/ha,[6]; [14],100%
same,pest or weed control at 250 g/ha,[6]; [15],100%
same,Pre-emerge Herbicidal Activity CORN,[8]; 63 g ai/ha,10
same,Pre-emerge Herbicidal Activity CORN,[8]; 250 g ai/ha,80
same,Pre-emerge Herbicidal Activity SOY,[9]; 63 g ai/ha,70
same,Pre-emerge Herbicidal Activity SOY,[9]; 250 g ai/ha,100
same,Pre-emerge Herbicidal Activity RICE,[10]; 63 g ai/ha,50
same,Pre-emerge Herbicidal Activity RICE,[10]; 250 g ai/ha,95
same,phytotoxicity rating AMBEL,[7]; 63 g ai/ha,40
same,phytotoxicity rating AMBEL,[7]; 250 g ai/ha,90
same,phytotoxicity rating CORN (crop damage),[11]; 63 g ai/ha,10
same,phytotoxicity rating CORN (crop damage),[11]; 250 g ai/ha,20
same,phytotoxicity rating SOY (crop damage),[12]; 63 g ai/ha,50
same,phytotoxicity rating SOY (crop damage),[12]; 250 g ai/ha,100
same,phytotoxicity rating RICE (crop damage),[13]; 63 g ai/ha,20
same,phytotoxicity rating RICE (crop damage),[13]; 250 g ai/ha,50
"COc1c(Cl)cc(F)c(-c2nn(C)c(C(F)(F)F)c2Cl)c1N [Compound 7-2, 4-chloro-3-(2-amino-4-chloro-6-fluoro3-metoxyphenyl)-1-methyl-5-trifluoromethyl-1H-pyrazole]",pest or weed control at 63 g/ha,[1]; [16],100%
same,pest or weed control at 250 g/ha,[1]; [17],100%
same,Pre-emerge Herbicidal Activity AMBEL,[2]; [16],80
same,Pre-emerge Herbicidal Activity AMBEL,[2]; [17],100
same,pest or weed control at 63 g/ha,[3]; [16],95%
same,pest or weed control at 250 g/ha,[3]; [17],100%
same,pest or weed control at 63 g/ha,[4]; [16],100%
same,pest or weed control at 250 g/ha,[4]; [17],100%
same,pest or weed control at 63 g/ha,[5]; [16],95%
same,pest or weed control at 250 g/ha,[5]; [17],100%
same,pest or weed control at 63 g/ha,[6]; [16],95%
same,pest or weed control at 250 g/ha,[6]; [17],100%
same,Post-emerge Herbicidal Activity AMBEL,[7]; 63 g ai/ha,0
same,Post-emerge Herbicidal Activity AMBEL,[7]; 250 g ai/ha,10
